Measurements from patent publication US20250326733A1, “A NEW ROUTE FOR SY[…] CHIRAL CANNABINOIDS FROM COUMARINS” (University of Florida Research Foundation, Inc., priority 2021, published 2025).
Entries after “also recorded” stand apart in the source; their conditions may differ.

Assays:
hCB1R [1] = target: T1, hCB1R (Homo sapiens, UniProt P21554); assay: Functional activity (agonism), TRUPATH assay of Gαiβ3γ9 protein activation; type: cell-based; settings: for Emax: mean ± SEM, n >= 3, NA = no observable agonism at concentrations up to 31.6 μM
hCB2R [2] = target: T2, hCB2R (Homo sapiens, UniProt P34972); assay: as above; type: cell-based; settings: for Emax: mean ± SEM, n >= 3
hCB2R [3] = target: T2, hCB2R; assay: Binding affinity at human cannabinoid receptor 2; settings: for CB1/CB2: ratio of Ki hCB1R / hCB2R
hCB1R [4] = target: T1, hCB1R; assay: Binding affinity at human cannabinoid receptor 1
hCB2R [5] = target: T2, hCB2R; assay: Stimulation of [35S]GTPγS binding (native G protein activation); type: biochemical

T2 sequence (P34972 whole entry): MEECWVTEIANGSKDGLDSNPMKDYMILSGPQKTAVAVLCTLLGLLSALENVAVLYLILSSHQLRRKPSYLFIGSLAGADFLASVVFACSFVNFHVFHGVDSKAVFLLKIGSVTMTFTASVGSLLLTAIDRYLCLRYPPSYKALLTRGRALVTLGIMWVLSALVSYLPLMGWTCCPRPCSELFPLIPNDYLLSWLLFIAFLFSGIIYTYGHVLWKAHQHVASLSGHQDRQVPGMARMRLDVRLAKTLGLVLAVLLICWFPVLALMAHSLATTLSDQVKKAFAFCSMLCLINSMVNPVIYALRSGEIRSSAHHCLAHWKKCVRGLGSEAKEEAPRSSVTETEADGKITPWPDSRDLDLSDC
T1 sequence (P21554 whole entry): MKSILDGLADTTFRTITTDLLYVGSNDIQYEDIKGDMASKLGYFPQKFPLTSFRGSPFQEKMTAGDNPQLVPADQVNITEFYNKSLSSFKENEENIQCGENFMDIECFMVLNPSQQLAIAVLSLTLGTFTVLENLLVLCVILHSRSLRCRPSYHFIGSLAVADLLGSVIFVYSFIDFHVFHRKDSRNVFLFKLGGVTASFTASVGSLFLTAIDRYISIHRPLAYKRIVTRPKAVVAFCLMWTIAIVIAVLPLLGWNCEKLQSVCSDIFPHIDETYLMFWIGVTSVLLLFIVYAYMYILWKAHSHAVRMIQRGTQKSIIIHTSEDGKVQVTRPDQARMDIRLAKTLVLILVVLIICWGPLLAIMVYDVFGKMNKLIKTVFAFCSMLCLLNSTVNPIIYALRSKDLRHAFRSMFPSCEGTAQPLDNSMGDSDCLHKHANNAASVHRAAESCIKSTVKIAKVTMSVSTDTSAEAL

| Structure (SMILES) | Ki (hCB2R [3]) | CB1/CB2 (hCB2R [3]) | Ki (hCB1R [4]; Ki (nM), hCB1R) | EC50 (hCB1R [1]) | Emax (hCB1R [1]; hCB1R) | EC50 (hCB2R [2]) | Emax (hCB2R [2]; hCB2R) | further results |
| --- | --- | --- | --- | --- | --- | --- | --- | --- |
| C=C(C)[C@@H]1CCC(C)=C[C@H]1c1c(O)cc(CCCCC)cc1O [CBD, cannabidiol, reference compound] | – | – | – | – | – | – | – | agonism / efficacy (in words) (hCB1R [1]; hCB1R): no efficacy; agonism / efficacy (in words) (hCB2R [2]; hCB2R): no efficacy |
| CCCCCc1cc(O)c2c(c1)OC(C)(C)c1ccc(C)cc1-2 [CBN, cannabinol, reference compound] | 138 nM | 1.7 | 240 nM | – | – | – | – | Ki (hCB1R [4]; pKi, hCB1R, one site, FIG. 5): 631 nM |
| CCCCCCC(C)(C)c1cc(O)c2c(c1)OC(C)(C)c1ccc(C)c(CO)c1-2 [axCBN-3] | 0.933 nM | 0.7 | 0.661 nM | 26.3 nM | 0.0807 ± 0.0141 | 3.47 nM | 0.120 ± 0.0296 | affinity, fold higher than CBN (hCB2R [3]; hCB2R): ~134 fold; affinity (in words) (hCB2R [3]; hCB2R / CB2 receptor): sub-nanomolar; also recorded: picomolar; affinity, fold higher than CBN (hCB1R [4]; hCB1R): approximately 360 fold; affinity (in words) (hCB1R [4]; hCB1R / CB1 receptor): sub-nanomolar; also recorded: picomolar; affinity, fold higher than CBN-DMH reported by Rhee, et al. (hCB1R [4]; hCB1R and hCB2R, comparator value from literature): 5-10 fold; pKiLo (low affinity site) (hCB1R [4]; hCB1R, two site binding model, FIG. 5): 7.3; Ki (hCB1R [4]; pKiHi (high affinity site), hCB1R, two site binding model, FIG. 5): 0.398 nM; potency to stimulate [35S]GTPγS binding, hCB2R versus hCB1R (hCB2R [5]; greater at hCB2R than at hCB1R): 2 fold; efficacy in [35S]GTPγS binding (in words) (hCB2R [5]; relative to CBN): increased efficacy over CBN |
| CCCCCCC(C)(C)c1cc(OC(C)=O)c2c(c1)OC(C)(C)c1ccc(C)c(COC(C)=O)c1-2 [axCBN-4] | 195 nM | 6.2 | 1200 nM | 7080 nM | 0.175 ± 0.0832 | 178 nM | 0.120 ± 0.0294 | selectivity for hCB2R over hCB1R (hCB2R [3]): 6.2 fold; agonist activity (in words) (hCB2R [5]; hCB2R): maintained agonist activity |
